The values below come from US10442804B2, “Compounds for the treatment of hepatitis B virus infection” (Gilead Sciences, Inc., priority 2017, dated 2019).

In data set [1] the test system is HBV-infected NTCP-HepG2 cells, secreted HBsAg. The data set is described as follows: microbe, parasite or virus in culture. To be noted: Hepatitis B virus, 120 h, secreted HBsAg in supernatant after 5 days; geometric mean of minimum four determinations; read-out: NTCP HBsAg EC50. The class given is cell-based, hepatitis B virus (genotype D, AD38-derived). In outline:
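NTCP-HepG2 cells were infected with genotype D HBV at 4000 genome equivalents/cell, then seeded 4 days post-infection with serially diluted compounds (1% DMSO) for 5 days. Supernatant HBsAg was measured by chemiluminescent MSD immunoassay. EC50 from four-parameter fit, geometric mean of ≥4 determinations.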

A further data set can be described thus: MT-4 cytotoxicity assay. The class given is cell-based, human. The note with it: human.
[2] abbreviates: five days, Cell Titer Glo luminescence, read-out: MT-4 CC50.

The structures appear in SMILES notation. Read-outs that look alike come from different tables or passages of the source.

As to `COCCCOc1c(OC)cc2c(c1F)[C@H]1CCC(C)(C)N1n1cc(C(=O)O)c(=O)cc1-2` [Example 67, (R)-13-fluoro-11-methoxy-12-(3-methoxypropoxy)-3,3-dimethyl-8-oxo-2,3,8,13b-tetrahydro-1H-pyrido[2,1-a]pyrrolo[1,2-c]phthalazine-7-carboxylic acid], the concentration for a half-maximal effect (EC50) (usually the concentration giving half of the maximal effect) in data set [1] is 5.3 nM. The CC50 (in general, the concentration giving 50% cytotoxicity) at 5 days in “MT-4 cytotoxicity assay” (setting [2]) was over 10000 nM.
With `CC1(C)CC[C@@H]2c3cc(OCCCOC4COC4)c(Cl)cc3-c3cc(=O)c(C(=O)O)cn3N21` [Example 98, (R)-11-chloro-3,3-dimethyl-12-(3-(oxetan-3-yloxy)propoxy)-8-oxo-2,3,8,13b-tetrahydro-1H-pyrido[2,1-a]pyrrolo[1,2-c]phthalazine-7-carboxylic acid], the EC50 in data set [1] came out at 2.2 nM. For the same compound, the CC50 at 5 days in the data set “MT-4 cytotoxicity assay” (setting [2]) was over 10000 nM.
On the same counts, the results for `CCc1cc2c(cc1OCCCOC)[C@H]1CCC(C)(C)N1n1cc(C(=O)O)c(=O)cc1-2` [Example 63, (R)-11-Ethyl-12-(3-methoxypropoxy)-3,3-dimethyl-8-oxo-2,3,8,13b-tetrahydro-1H-pyrido[2,1-a]pyrrolo[1,2-c]phthalazine-7-carboxylic acid] are 0.34 nM and over 10000 nM.
On the same counts, the results for `COCCCOc1cc2c(cc1OC)-c1cc(=O)c(C(=O)O)cn1N1[C@@H]2CCCC1(C)C` (single isomer, unassigned) [Example 52] are 0.91 nM and over 10000 nM.
As for `COCCCOc1cc2c(cc1Cl)-c1cc(=O)c(C(=O)O)cn1N1[C@H]2CCC1(C)C` (single isomer, unassigned) [Example 6], the 50% effective concentration (EC50) in data set [1] came out at 300 nM. In “MT-4 cytotoxicity assay” (setting [2]), the CC50 at 5 days is over 10000 nM.
On the same counts, the results for `COCCCOc1cc2c(cc1Cl)-c1cc(=O)c(C(=O)O)cn1N1C2CCCC1(C)C` (stereo not shown) [Example 11, 13-chloro-12-(3-methoxypropoxy)-7,7-dimethyl-2-oxo-2,7,8,9,10,10a-hexahydrodipyrido[2,1-a:1′,2′-c]phthalazine-3-carboxylic acid] are 4.3 nM and over 10000 nM.
On to `COC(C)(C)C#Cc1cc2c(cc1OC(F)(F)F)-c1cc(=O)c(C(=O)O)cn1N1[C@@H]2CCC1(C)C` [Example 90, (R)-12-(3-methoxy-3-methylbut-1-yn-1-yl)-3,3-dimethyl-8-oxo-11-(trifluoromethoxy)-2,3,8,13b-tetrahydro-1H-pyrido[2,1-a]pyrrolo[1,2-c]phthalazine-7-carboxylic acid], for which the EC50 in data set [1] turned out to be 5 nM. Moreover, in “MT-4 cytotoxicity assay” (setting [2]), the 50% cytotoxic concentration (CC50) at 5 days was over 10000 nM.
`COCCCOc1cc2c(cc1Cl)-c1cc(=O)c(C(=O)O)cn1N1CC(C)(C)C[C@@H]21` (single isomer, unassigned) [Example 30]: the EC50 in data set [1] was 10 nM. Besides, the 50% cytotoxic concentration (CC50) at 5 days in the data set “MT-4 cytotoxicity assay” (setting [2]) was over 10000 nM.
On the same counts, the results for `COCc1cc2c(cc1OCCCOC1COC1)[C@H]1CCC(C)(C)N1n1cc(C(=O)O)c(=O)cc1-2` [Example 94, (R)-11-(methoxymethyl)-3,3-dimethyl-12-(3-(oxetan-3-yloxy)propoxy)-8-oxo-2,3,8,13b-tetrahydro-1H-pyrido[2,1-a]pyrrolo[1,2-c]phthalazine-7-carboxylic acid] are 6 nM and over 10000 nM.
With `COc1cc2c(cc1C#CC(C)(C)S(=O)(=O)C1CC1)[C@H]1CCC(C)(C)N1n1cc(C(=O)O)c(=O)cc1-2` [Example 84, (R)-12-(3-(cyclopropylsulfonyl)-3-methylbut-1-yn-1-yl)-11-methoxy-3,3-dimethyl-8-oxo-2,3,8,13b-tetrahydro-1H-pyrido[2,1-a]pyrrolo[1,2-c]phthalazine-7-carboxylic acid], in data set [1], the EC50 was determined as 11.2 nM. In the data set “MT-4 cytotoxicity assay” (setting [2]), the half-maximal cytotoxic concentration (CC50) at 5 days was over 10000 nM.
Regarding `COCCCOc1cc2c(cc1Cl)-c1cc(=O)c(C(=O)O)cn1N1[C@H]2CCC12CC2` (single isomer, unassigned) [Example 57], the EC50 in data set [1] is over 1000 nM. In the data set “MT-4 cytotoxicity assay” (MT-4 CC50), this compound registered a half-maximal cytotoxic concentration (CC50) at 5 days of over 10000 nM.
Take `COCCCOc1cc2c(cc1COC)-c1cc(=O)c(C(=O)O)cn1N1[C@@H]2CCC12CC2` [Example 87, (R)-11′-(methoxymethyl)-12′-(3-methoxypropoxy)-8′-oxo-1′,2′,8′,13b′-tetrahydrospiro[cyclopropane-1,3′-pyrido[2,1-a]pyrrolo[1,2-c]phthalazine]-7′-carboxylic acid]: the EC50 in data set [1] came out at 4.2 nM. In “MT-4 cytotoxicity assay” (MT-4 CC50), the CC50 at 5 days is over 10000 nM.
`CC1(C)CC[C@@H]2c3cc(C#Cc4ccc(N)nc4)c(OC(F)F)cc3-c3cc(=O)c(C(=O)O)cn3N21` [Compound 106, (R)-12-((6-aminopyridin-3-yl)ethynyl)-11-(difluoromethoxy)-3,3-dimethyl-8-oxo-2,3,8,13b-tetrahydro-1H-pyrido[2,1-a]pyrrolo[1,2-c]phthalazine-7-carboxylic acid]: the EC50 in data set [1] was 0.37 nM. Further, the CC50 at 5 days in the data set “MT-4 cytotoxicity assay” (setting [2]) was 7500 nM.
Turning to `COCCCOc1cc2c(cc1Cl)-c1cc(=O)c(C(=O)O)cn1N1CCC(C)(C)[C@@H]21` (single isomer, unassigned) [Example 48], the concentration for a half-maximal effect (EC50) in data set [1] is over 1000 nM. In the data set “MT-4 cytotoxicity assay” (setting [2]), the CC50 at 5 days stood at 2200 nM.
On to `COc1cc2c(cc1C#Cc1cncn1C)[C@H]1CCC(C)(C)N1n1cc(C(=O)O)c(=O)cc1-2` [Example 42, (R)-11-methoxy-3,3-dimethyl-12-((1-methyl-1H-imidazol-5-yl)ethynyl)-8-oxo-2,3,8,13btetrahydro-1H-pyrido[2,1-a]pyrrolo[1,2-c]phthalazine-7-carboxylic acid], for which, in data set [1], the EC50 is 4.8 nM. In “MT-4 cytotoxicity assay” (setting [2]), the cytotoxic concentration (CC50) at 5 days is over 10000 nM.
For `COCCCOc1cc2c(cc1Cl)-c1cc(=O)c(C(=O)O)cn1[C@@H]1[C@@H]2CCC1(C)C` (single isomer, unassigned) [Example 36], the concentration for a half-maximal effect (EC50) in data set [1] is 170 nM. In addition, the 50% cytotoxic concentration (CC50) at 5 days in “MT-4 cytotoxicity assay” (setting [2]) is over 10000 nM.
Take `COc1cc2c(cc1OCC1CC(F)(F)C1)[C@H]1CCC(C)(C)N1n1cc(C(=O)O)c(=O)cc1-2` [Example 50, (R)-12-((3,3-difluorocyclobutyl)methoxy)-11-methoxy-3,3-dimethyl-8-oxo-2,3,8,13b-tetrahydro-1H-pyrido[2,1-a]pyrrolo[1,2-c]phthalazine-7-carboxylic acid]: the concentration for a half-maximal effect (EC50) in data set [1] worked out at 1 nM. The CC50 at 5 days in the data set “MT-4 cytotoxicity assay” (setting [2]) is over 10000 nM.
On the same counts, the results for `COc1cc2c(cc1OCCCOC(F)(F)F)[C@H]1CCC(C)(C)N1n1cc(C(=O)O)c(=O)cc1-2` [Example 58, (R)-11-methoxy-3,3-dimethyl-8-oxo-12-(3-(trifluoromethoxy)propoxy)-2,3,8,13b-tetrahydro-1H-pyrido[2,1-a]pyrrolo[1,2-c]phthalazine-7-carboxylic acid] are 4.8 nM and 9300 nM.
For the compound `COCCCOc1cc2c(cc1C1CC1)-c1cc(=O)c(C(=O)O)cn1N1[C@@H]2COCC1(C)C` [Example 101, (S)-12-cyclopropyl-13-(3-methoxypropoxy)-4,4-dimethyl-9-oxo-3,4,9,14b-tetrahydro-1H-[1,4]oxazino[3,4-a]pyrido[1,2-c]phthalazine-8-carboxylic acid], in data set [1], the EC50 came to 0.7 nM. In addition, the CC50 at 5 days in the data set “MT-4 cytotoxicity assay” (setting [2]) was 8200 nM.
On the same counts, the results for `COCc1cc2c(cc1OCC13CC(C#N)(C1)C3)[C@H]1CCC(C)(C)N1n1cc(C(=O)O)c(=O)cc1-2` [Example 74, (R)-12-((3-cyanobicyclo[1.1.1]pentan-1-yl)methoxy)-11-(methoxymethyl)-3,3-dimethyl-8-oxo-2,3,8,13b-tetrahydro-1H-pyrido[2,1-a]pyrrolo[1,2-c]phthalazine-7-carboxylic acid] are 3.8 nM and over 10000 nM.
Regarding `COCc1cc2c(cc1OCCCO)[C@H]1CCC(C)(C)N1n1cc(C(=O)O)c(=O)cc1-2` [Compound 111, (R)-12-(3-hydroxypropoxy)-11-(methoxymethyl)-3,3-dimethyl-8-oxo-2,3,8,13b-tetrahydro-1H-pyrido[2,1-a]pyrrolo[1,2-c]phthalazine-7-carboxylic acid], the EC50 in data set [1] was found to be 32.2 nM. Further, in “MT-4 cytotoxicity assay” (setting [2]), the CC50 at 5 days was over 10000 nM.
On the same counts, the results for `CCc1cc2c(cc1OCC13CC(C#N)(C1)C3)[C@H]1CCC(C)(C)N1n1cc(C(=O)O)c(=O)cc1-2` [Example 100, (R)-12-((3-cyanobicyclo[1.1.1]pentan-1-yl)methoxy)-11-ethyl-3,3-dimethyl-8-oxo-2,3,8,13b-tetrahydro-1H-pyrido[2,1-a]pyrrolo[1,2-c]phthalazine-7-carboxylic acid] are 0.48 nM and 3900 nM.
On the same counts, the results for `CC1(C)CC[C@@H]2c3cc(OCCn4nc5ccccn5c4=O)c(OC(F)(F)F)cc3-c3cc(=O)c(C(=O)O)cn3N21` [Example 91, (R)-3,3-dimethyl-8-oxo-12-(2-(3-oxo-[1,2,4]triazolo[4,3-a]pyridin-2(3H)-yl)ethoxy)-11-(trifluoromethoxy)-2,3,8,13b-tetrahydro-H-pyrido[2,1-a]pyrrolo[1,2-c]phthalazine-7-carboxylic acid] are 3 nM and over 10000 nM.
With `CC1(C)CC[C@@H]2c3cc(OCC45CC(C#N)(C4)C5)c(C4CC4)cc3-c3cc(=O)c(C(=O)O)cn3N21` [Example 99, (R)-12-((3-cyanobicyclo[1.1.1]pentan-1-yl)methoxy)-11-cyclopropyl-3,3-dimethyl-8-oxo-2,3,8,13b-tetrahydro-1H-pyrido[2,1-a]pyrrolo[1,2-c]phthalazine-7-carboxylic acid], the EC50 in data set [1] came out at 0.66 nM. Also, the CC50 at 5 days in the data set “MT-4 cytotoxicity assay” (setting [2]) stood at 3600 nM.
On the same counts, the results for `COCCCOc1cc2c(cc1Cl)-c1cc(=O)c(C(=O)O)cn1N1[C@H]2CCCC1(C)C` (single isomer, unassigned) [Example 13] are 34 nM and over 10000 nM.
On the same counts, the results for `COC(C)(C)C#Cc1cc2c(cc1OC(F)F)-c1cc(=O)c(C(=O)O)cn1N1[C@@H]2CCC1(C)C` [Example 103, (R)-11-(difluoromethoxy)-12-(3-methoxy-3-methylbut-1-yn-1-yl)-3,3-dimethyl-8-oxo-2,3,8,13b-tetrahydro-1H-pyrido[2,1-a]pyrrolo[1,2-c]phthalazine-7-carboxylic acid] are 0.82 nM and over 10000 nM.
